Patent US11377499B2, “Targeting the cofilin pathway” (priority 2017, dated 2022)

Key:
[1] = tested on: cofilin phosphorylation in resting memory CD4 T cells; test: Intracellular p-cofilin staining and flow cytometry after HIV-1(AD8) or gp120(BAL) stimulation; format: cell-based, human
Text: In addition to CXCR4, CCR5 is used by R5-tropic viruses that predominate early in the infection; R5 HIV infects and depletes gut memory CD4 T cells, leading to chronic immune activation (20, 21). Whether HIV-mediated CCR5 signaling can also lead to cofilin activation in memory T cells was investigated. In contrast to X4 viruses, which infect both memory and naïve CD4 T cells, R5 viruses infect a subpopulation of memory CD4 T cells (FIG. 1A). CCR5 is present on only around 30% of resting memory CD4 T cells (FIG. 1B). Given this low percentage, a flow cytometry-based intracellular phospho-cofilin staining method was used to quantify cofilin in individual cells. […]
A3R5.7 cell is acquired from the NIH AIDS Reagent Program. […] Viral titer (TCID50) was determined on the Rev-dependent GFP indicator cell (61), Rev-A3R5-GFP (Virongy, Manassas, Va.). […] T cells were stained with anti-CD45RO-Pacific Blue monoclonal antibody (BD Pharmingen) and analyzed by Flow Cytometry for CD45RO and GFP expression. […]
One million cells were fixed, permeabilized with methanol, washed, and then stained with an anti-human p-cofilin antibody using a commercial intracellular staining kit (Virongy, Manassas, Va.) for 60 min at room temperature. […] Cells were washed twice, and then analyzed on a FACSCalibur (BD Biosciences, San Jose, Calif.).

[2] = tested on: A3R5.7 T cells or blood resting CD4 T cells; test: Chemotaxis trans-well assay in response to SDF-1; format: cell-based, human
Description: (§1) Cells were stained with PE-labeled Rat anti-human CCR5 antibody (Biolegend, San Diego, Calif.) or with a mouse anti-human α4β7 integrin antibody (Act-1) (obtained from NIH AIDS Reagent Program) followed by secondary antibody staining with Alexa Fluor 647-labelled goat anti-mouse antibodies (Invitrogen, Carlsbad, Calif.). Cells were stained on ice in PBS+0.1% BSA for 30 minutes, washed with cold PBS-0.5% BSA, and then analyzed on a FACSCalibur (BD Biosciences, San Jose, Calif.).
A half million cells were resuspended into 100 μl RPMI-1640 medium and then added to the upper chamber of a 24-well trans-well plate (Corning, Corning, N.Y.). The lower chamber was filled with 600 μl of medium premixed with SDF-1 (40 ng/ml). The plate was incubated at 37° C. for 2 hours, and then the upper chamber was removed and cells in the lower chamber were counted. Where indicated, different concentrations of R10015 (29) or DMSO were added to cell culture, incubated for 1 hour at 37° C. before adding cells to the upper chamber. Cells were also treated with the anti-human α4β7 integrin antibody (Act-1) or the control mouse IgG1 antibody for 15 minutes before adding cells to the upper chamber. Act-1 (1 μg/ml) was also added to the lower chamber with SDF-1 (40 ng/ml).

[3] = tested on: cofilin phosphorylation in A3R5.7 T cells or blood resting CD4 T cells; test: Western blot for p-cofilin and cofilin after R10015 treatment; format: cell-based, human
Text: Cofilin hyperactivation may be associated with a migratory impairment of CCR6+ and CXCR3+ helper T cells (Th), which are prevented from trafficking from the blood stream to peripheral organs even in aviremic HIV patients on long-term ART (5). T cell migration and homing is controlled by chemotactic signaling which activates cycles of cofilin phosphorylation and dephosphorylation to drive actin dynamics for cell motility. Phosphorylation of cofilin is regulated by LIM-domain kinase (LIMK), which inactivates cofilin through serine 3 phosphorylation (28). To quantify the effect of cofilin hyperactivation on T cell migration, a recently discovered LIMK inhibitor, R10015 (29) was used, to mimic cofilin activation in HIV infection. A human CD4 T cell line, A3R5.7, or blood resting CD4 T cells were treated with different dosages of R10015 during chemotaxis (FIG. 3). […] At around 15 to 20 μM of R10015, cofilin phosphorylation was reduced to around 50%, approximately the level seen in HIV patients (FIGS. 3A and 3B).
One million cells were lysed in NuPAGE LDS Sample Buffer (Invitrogen, Carlsbad, Calif.) followed by sonication. Samples were heated at 70° C. for 10 minutes, separated by SDS-PAGE, and then transferred onto nitrocellulose membranes (Invitrogen, Carlsbad, Calif.). The membranes were washed in TBST for 3 minutes and then blocked for 30 minutes at room temperature with 5% milk. […]

[4] = prevents therapeutic use; cited from earlier work
[5] = tested on: LIMK; conditions: previously identified (30); cited from earlier work
[6] = tested on: cofilin phosphorylation in resting memory and IL-7-cultured naïve CD4 T cells (α4β7 integrin); test: Intracellular p-cofilin staining and flow cytometry after Act-1 stimulation; format: cell-based, human; conditions: memory T cells treated with PTX 2 hours, then Act-1 1 μg/ml; 30 min
Description: In the human peripheral blood, high levels of α4β7 were detected on a subpopulation of resting memory CD4 T cells (36).
One million cells were fixed, permeabilized with methanol, washed, and then stained with an anti-human p-cofilin antibody using a commercial intracellular staining kit (Virongy, Manassas, Va.) for 60 min at room temperature. Cells were washed twice and stained with Alexa Fluor 488-labeled chicken anti-rabbit antibodies (Invitrogen, Carlsbad, Calif.). Cells were washed twice, and then analyzed on a FACSCalibur (BD Biosciences, San Jose, Calif.).

[7] = tested on: α4β7 on naïve CD4 T cells; test: Surface staining of α4β7 and flow cytometry; format: cell-based, human; conditions: naïve T cells cultured in IL-7 (5 ng/ml) for 3 days; FIG. 5
Text: All protocols involving human subjects were reviewed and approved by the George Mason University institutional review board. Peripheral blood mononuclear cells (PBMC) were purified from peripheral blood of HIV-negative donors by centrifugation in Lymphocyte Separation Medium (Corning, Corning, N.Y.), and resting CD4 T cells were further purified by two rounds of negative selection as previously described (13, 54). Briefly, for the first-round depletion, monoclonal antibodies against human CD14, CD56 and HLA-DR, DP, and DQ (BD Biosciences, San Jose, Calif.) were used. For the second-round depletion, monoclonal antibodies against human CD8, CD11b, and CD19 (BD Biosciences, San Jose, Calif.) were used. Antibody-bound cells were depleted using Dynabeads Pan Mouse IgG (Invitrogen, Carlsbad, Calif.). […]
as §1

Molecule: Cc1nnc(C(C)C)n1C1C[C@H]2CC[C@@H](C1)N2CC[C@H](NC(=O)C1CCC(F)(F)CC1)c1ccccc1 (stereo in doubt) [maravoric]
- cofilin activation by gp120(BAL) after pretreatment with CCR5 blocker ([1]; maravoric 1 μM for 1 hour, then gp120(BAL) 100 nM, FIG. 1D): largely abrogated

Molecule: COC(=O)c1ccc2nc(C3CCN(c4ncnc5[nH]cc(Cl)c45)CC3)[nH]c2c1 [R10015]
- decrease in migrating T cells ([2]; 15 μM or 20 μM R10015 (50% reduction in cofilin phosphorylation), A3R5.7 and blood T cells, SDF-1 40 ng/ml): 20-40%
- percentage of migrating α4β7^high T cells ([2]; R10015 alone, control 8.90%, FIG. 4F): 4.52%
- percentage of the CCR7^+ T cell subpopulation among migrating cells ([2]; R10015 and Act-1, FIG. 8): not altered
- impairment of T cell chemotaxis ([2]; different dosages of R10015, SDF-1 40 ng/ml, FIGS. 3C and 3D): dosage-dependent impairment of T cell chemotaxis
- cofilin phosphorylation reduced to ([3]; around 15 to 20 μM R10015, one hour, A3R5.7 or blood resting CD4 T cells): around 50%
- dephosphorylation of cofilin ([3]; different dosages of R10015, one hour, FIGS. 3A and 3B): dosage-dependent dephosphorylation of cofilin

Molecule: C=C1[C@@H](O)[C@@H]2O[C@]3(CC[C@H](/C=C/[C@@H](C)[C@@H]4CC(C)=C[C@@]5(O[C@H](C[C@@](C)(O)C(=O)O)CC[C@H]5O)O4)O3)CC[C@H]2O[C@@H]1[C@@H](O)C[C@H](C)[C@H]1O[C@@]2(CCCCO2)CC[C@H]1C [okadaic acid]
- toxicity [4]: high toxicity
- LIMK activation, cofilin phosphorylation and actin polymerization [5]: activate LIMK and enhance cofilin phosphorylation and actin polymerization

Molecule: pertussis toxin
- cofilin activation (dephosphorylation) following exposure to R5-HIV ([1]; resting memory CD4 T cells, pertussis toxin 100 ng/ml for 1 hour, then HIV(AD8), FIG. 1C): largely abrogated late cofilin activation
- Act-1-mediated cofilin activation after PTX [6]: late inhibition of cofilin activation

B1: IL-7: cytokine used to culture naïve T cells for α4β7 surface receptor upregulation (protein, UniProt P13232 26-177, looked up)
Interleukin-7: DCDIEGKDGKQYESVLMVSIDQLLDSMKEIGSNCLNNEFNFFKRHICDANKEGMFLFRAARKLRQFLKMNSTGDFDLHLLKVSEGTTILLNCTGQVKGRKPAALGEAQPTKSLEENKSLKEQKKLNDLCFLKRLLQEIKTCWNKILMGTKEH
- α4β7 surface expression [7]: greatly upregulate α4β7 on the cell surface
